Reference: patent publication US11952378B1, “Pyrrolo[2,3-c]isoquinoline-1,2-dione compounds as CK2 inhibitors” (KING FAISAL UNIVERSITY, priority 2023, dated 2024)
pIC50: −log10 of the molar value.

Legend:
PC3 (prostate) = assay: In vitro cytotoxic activity assay (MTT), PC3; assay type: cell-based; conditions: Homo sapiens, Prostate cell; PC3 (prostate) cells, exposed for 96 hours; read-out: IC50, concentration eliciting 50% inhibition of cell proliferation
Method: (§1) Compounds 1-16 were screened for their in vitro cytotoxic behavior using a 3-(4,5-dimethyl-thiazol-2-yl)-2,5-diphenyltetrazolium bromide (MTT) assay against selected cancer human cell lines consisting of PC3 (prostate), HCT116 (colon), A375 (melanoma), H1299 (lung), MIAPaCa-2 (pancreas), HL60 (leukemia), MCF7 (breast), MDA-MB-231 (breast) (T. Mosmann, J. Immunol. Meth., 1983, 65, 55-63). The cells were cultured at 37° C. in RMPI1640 medium supplemented with 10% fetal bovine serum, 50 IU/mL penicillin, and 50 μg/mL streptomycin in a 5% CO2 incubator. All cells were sub-cultured 3 times/week by trypsinisation. Viable cells were seeded and allowed to adhere for 12 h before a test drug was added in 96-well plates at an initial density of 1.0×10^5 cells/mL. Tumor cell lines were separately exposed to various concentrations of the tested compounds followed by incubation at a temperature of 37° C. during 96 h inside a medium of fresh RMPI 1640. Cells were subsequently incubated at 37° C. using MTT at 0.5 mg/mL during 4 hours. After removal of supernatant, formazan crystals were dissolved in isopropanol and the optical density was measured at 570 nm. CX-4945 was used as a positive control.

MIAPaCa-2 (pancreas) = assay: In vitro cytotoxic activity assay (MTT), MIAPaCa-2; assay type: cell-based; conditions: Homo sapiens, MIA PaCa-2; MIAPaCa-2 (pancreas) cells, exposed for 96 hours; read-out: IC50, concentration eliciting 50% inhibition of cell proliferation
Method: as §1

MCF7 (breast) = assay: In vitro cytotoxic activity assay (MTT), MCF7; assay type: cell-based; conditions: Homo sapiens; MCF7 (breast) cells, exposed for 96 hours; read-out: IC50, concentration eliciting 50% inhibition of cell proliferation
Method: as §1

H1299 (lung) = assay: In vitro cytotoxic activity assay (MTT), H1299; assay type: cell-based; conditions: Homo sapiens, NCI-H1299; H1299 (lung) cells, exposed for 96 hours; read-out: IC50, concentration eliciting 50% inhibition of cell proliferation
Method: as §1

MDA-MB-231 (breast) = assay: In vitro cytotoxic activity assay (MTT), MDA-MB-231; assay type: cell-based; conditions: Homo sapiens; MDA-MB-231 (breast) cells, exposed for 96 hours; read-out: IC50, concentration eliciting 50% inhibition of cell proliferation
Method: as §1

HCT116 (colon) = assay: In vitro cytotoxic activity assay (MTT), HCT116; assay type: cell-based; conditions: Homo sapiens, HCT-116; HCT116 (colon) cells, exposed for 96 hours; read-out: IC50, concentration eliciting 50% inhibition of cell proliferation
Method: as §1

HL60 (leukemia) = assay: In vitro cytotoxic activity assay (MTT), HL60; assay type: cell-based; conditions: Homo sapiens, HL-60; HL60 (leukemia) cells, exposed for 96 hours; read-out: IC50, concentration eliciting 50% inhibition of cell proliferation
Method: as §1

A375 (melanoma) = assay: In vitro cytotoxic activity assay (MTT), A375; assay type: cell-based; conditions: Homo sapiens, A-375; A375 (melanoma) cells, exposed for 96 hours; read-out: IC50, concentration eliciting 50% inhibition of cell proliferation
Method: as §1

[1] = target: T1, recombinant human CK2 (RRββ-holoenzyme) (Homo sapiens, UniProt P68400); assay: CK2 Kinase Assay ([γ-33P]ATP, substrate peptide RRRDDDSDDD); assay type: biochemical; conditions: final ATP concentration 15 μM, 10 minutes at 30° C.; read-out: protein kinase CK2 IC50
T1 construct: purchased Millipore
Method: CK2 Kinase Assay was conducted using the previously described protocol (Pierre F. et al; J. Med. Chem. 2011, 54, 635-654). The tested compounds in aqueous solution were added at a volume of 10 μL to a reaction mixture comprising 10 μL of assay dilution buffer (ADB; 20 mM MOPS, pH 7.2, 25 mM β-glycerol phosphate, 5 mM EGTA, 1 mM sodium orthovanadate, and 1 mM dithiothreitol), 10 μL of substrate peptide (RRRDDDSDDD, dissolved in ADB at a concentration of 1 mM), 10 μL of recombinant human CK2 (RRββ-holoenzyme, 25 ng dissolved in ADB; Millipore). Reactions were initiated by the addition of 10 μL of ATP solution (90% 75 mMMgCl2, 75 μM ATP (final ATP concentration: 15 μM) dissolved in ADB; 10% [γ-33P] ATP (stock 1 mCi/100 μL; 3000 Ci/mmol (Perkin-Elmer) and maintained for 10 minutes at 30° C. The reactions were quenched with 100 μL of 0.75% phosphoric acid and then transferred to and filtered through a phosphor cellulose filter plate (Millipore). After washing each well five times with 0.75% phosphoric acid, the plate was dried under vacuum for 5 min and, following the addition of 15 μL of scintillation fluid to each well, the residual radioactivity was measured using a Wallac luminescence counter. The IC50 values were derived from eight concentrations of test inhibitors.

T1 sequence (P68400 whole entry): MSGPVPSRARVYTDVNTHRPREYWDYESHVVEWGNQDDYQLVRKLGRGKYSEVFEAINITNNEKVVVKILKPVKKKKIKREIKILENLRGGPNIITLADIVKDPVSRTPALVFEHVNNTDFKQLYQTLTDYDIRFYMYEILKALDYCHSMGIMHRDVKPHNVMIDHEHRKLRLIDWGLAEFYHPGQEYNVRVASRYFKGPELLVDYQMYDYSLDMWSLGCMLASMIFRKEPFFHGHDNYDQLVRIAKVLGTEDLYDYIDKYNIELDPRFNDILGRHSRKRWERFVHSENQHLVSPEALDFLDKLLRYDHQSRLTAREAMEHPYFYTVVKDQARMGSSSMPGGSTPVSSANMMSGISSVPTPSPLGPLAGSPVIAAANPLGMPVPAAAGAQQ
T1 sequence (P67870 whole entry partner): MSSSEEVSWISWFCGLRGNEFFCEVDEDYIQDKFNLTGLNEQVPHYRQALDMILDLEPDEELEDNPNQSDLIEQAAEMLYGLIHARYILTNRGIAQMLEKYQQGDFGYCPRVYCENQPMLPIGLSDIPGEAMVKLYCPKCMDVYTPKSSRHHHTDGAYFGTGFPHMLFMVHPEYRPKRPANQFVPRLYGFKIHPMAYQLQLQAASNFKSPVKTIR

pIC50 [1]: 7.26
SMILES: O=C1Nc2nc(Nc3cccc(Cl)c3)c3cc(C(=O)O)ccc3c2C1=O [Compound 1, 5-((3-chlorophenyl)amino)-1,2-dioxo-2,3-dihydro-1H-pyrrolo[2,3-c]isoquinoline-7-carboxylic Acid]
pIC50 (PC3 (prostate)): 5.92
pIC50 (MIAPaCa-2 (pancreas)): 5.89
pIC50 (MCF7 (breast)): 5.26
pIC50 (H1299 (lung)): 5.72
pIC50 (MDA-MB-231 (breast)): 5.39
pIC50 (HCT116 (colon)): 5.89
pIC50 (HL60 (leukemia)): 5.47
pIC50 (A375 (melanoma)): 5.57
